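48-hour exposure; five concentrations; linearly interpolated endpoints. At the GI50, growth is halved. The concentration for full growth arrest is given as TGI.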
What follows are compounds tested on HCT-15 colon (assay: NCI-60 cell line screen, 48 h).

SMILES | GI50 [µM] | TGI [µM]
COc1cc(/C=C/c2cc(/C=C/c3ccc(O)c(OC)c3)n(C(=O)Nc3ccc(F)c(Cl)c3)n2)ccc1O | 0.25 | 3.34
CC(=O)[O-].CCN(CC)c1ccc(C=NCCN=Cc2ccc(N(CC)CC)cc2[O-])c([O-])c1.[Mn+3] | > 100 | > 100
Clc1ccc(C2=Nn3c(COc4ccccc4Cl)nnc3SC2)c(Cl)c1 | 54.6 | > 100
NC(N)=N/N=C(\c1nc2ccc([N+](=O)[O-])cc2[nH]c1=O)C(O)c1ccc([N+](=O)[O-])cc1 (centres undefined) |  | > 100
COc1cc2nc3cc([N+](=O)[O-])ccc3c(NCCCNCCO)c2cc1OC | 3.59 | 19.5
CCC[CH2][Sn]1([CH2]CCC)[O]CC(CN2CCCC2)[O]1 (centres undefined) | 15.3 | 29.2
CC1(C)C(=O)N(CCCCCCN2C(=O)C(C)(C)c3ccccc32)c2ccccc21 |  | > 100
NCCCCN(CCCN)/[N+]([O-])=N\O |  | > 100
CCOC(=O)c1c(C)n(Cc2ccc(Cl)cc2Cl)c2c1c(CN(C)C)c(O)c1[nH]cnc12 | 15.5 | 28.9
CCOc1ccccc1NC(=O)CC(C(=O)OC)C(=O)C(=O)OC (centres undefined) |  | > 100
COc1cccc2c1C(=O)c1c(O)c3c(c(O)c1C2=O)C[C@@](O)(C(C)=O)C[C@@H]3OC1OC(C)C(O)C(N)C1Br (some centres undefined) |  | 0.78
C[C@@]12CC=C3c4nc(Nc5cccc(O)c5)sc4CC[C@]3(C)[C@H]1CC[C@]1(C)C(=O)CC[C@@H]21 | 1.38 | 3.33
COC(=O)C1=C(C)N(NC(=O)OC(C)(C)C)C(=O)C1=P(c1ccccc1)(c1ccccc1)c1ccccc1 |  | > 100
O=C1OC(c2ccccc2)=N/C1=C\c1cccc2ccccc12 |  | > 100
Cc1cccc(NC(=O)/C(=N\NC(C)(C)C)C2NC(=S)NC2=O)c1C (centres undefined) |  | > 100
C[C@@H]1CC(=O)C2CCCC1C2=O (some centres undefined) |  | > 100
COC1=C(C)C(=O)c2c(c(COC(N)=O)c3n2CC2C3N2C)C1=O (centres undefined) |  | 0.0719
c1ccc(CNn2nnc3ccccc32)cc1 |  | > 100

What follows are compounds tested on HS 578T breast (assay: NCI-60 cell line screen, 48 h).

SMILES | TGI [µM] | GI50 [nM]
NCC1Nc2ccccc2[C@@H](O)C1O (some centres undefined) | > 100 | 
Cc1cccc(N2CCN(C(=S)c3ccc4c(c3)OCO4)CC2)c1 | 5.58 | 501
Cc1cc(S(=O)(=O)Nc2nnc(-c3ccccc3)c(-c3ccccc3)n2)c(SCC(N)=O)cc1Cl | > 100 | 32500
COc1cc(/C=C/c2cc(/C=C/c3ccc(O)c(OC)c3)n(C(=O)Nc3ccc(F)c(Cl)c3)n2)ccc1O | 2.74 | 346
Clc1ccc(C2=Nn3c(COc4ccccc4Cl)nnc3SC2)c(Cl)c1 | 69 | 15000
COc1cc2nc3cc([N+](=O)[O-])ccc3c(NCCCNCCO)c2cc1OC | 0.612 | 184
CCOC(=O)c1c(C)n(Cc2ccc(Cl)cc2Cl)c2c1c(CN(C)C)c(O)c1[nH]cnc12 | 81.8 | 29100
C[C@@]12CC=C3c4nc(Nc5cccc(O)c5)sc4CC[C@]3(C)[C@H]1CC[C@]1(C)C(=O)CC[C@@H]21 | > 100 | 2430
COC1=C(C)C(=O)c2c(c(COC(N)=O)c3n2CC2C3N2C)C1=O (centres undefined) | 0.986 | 

These compounds were tested on MOLT-4 leukemia (assay: NCI-60 cell line screen, 48 h).

SMILES | TGI [µM] | GI50 [µM]
Cc1nc(N)sc1C(=O)/C=C\c1ccc2c(c1)OCO2 | > 100 | 
COc1cc(C(C)O)c[n+](CCc2c[nH]c3ccccc23)c1 (centres undefined) | > 100 | 
CC1(C)SCc2nc3ncccc3n21 | > 100 | 
Cn1c(=O)c(C(c2ccc([N+](=O)[O-])cc2)c2c(O)c3ccccc3n(C)c2=O)cc2ccccc21 (centres undefined) | > 100 | 
Cc1cn(C2CC(O)C(CO)O2)c(=O)n2nnnc12 (centres undefined) | > 100 | 
COc1ccc(C(=O)C(C(=O)CCC(=O)Nc2cccc(Cl)c2)c2ccc(OC)cc2)cc1 (centres undefined) | > 100 | 
CCOC(=O)C1=C(C)N(NC(=O)Nc2ccccc2)C(=O)C1=P(c1ccccc1)(c1ccccc1)c1ccccc1 | 65.6 | 
COc1cc(C=C2C(=O)NC(=O)NC2=O)cc(OC)c1OC | > 100 | 
Nn1c(=O)n(Cc2ccccc2)n(-c2ccccc2)c1=O | > 100 | 
NCC1Nc2ccccc2[C@@H](O)C1O (some centres undefined) | > 100 | 
OC[C@H]1CCCC1O (some centres undefined) | > 100 | 
Cc1cccc(N2CCN(C(=S)c3ccc4c(c3)OCO4)CC2)c1 | > 100 | 15.8
